Reference: patent US9980943B2, “Methods of treating muscular dystrophy” (BOARD OF REGENTS OF THE NEVADA SYSTEM OF HIGHER EDUCATION, …, priority 2013, dated 2018)
Where two headings read alike, the source gives them in different places.

Tests used:
[1] = system: α7 integrin (LacZ reporter in α7LacZ+/− myoblasts); experiment: qHTS of the LOPAC library and MLSMR (online screen, α7LacZ+/− myoblasts); settings: for activation at 0.307 µM / activation at 1.53 µM / activation at 7.66 µM / activation at 38.3 µM / Emax / EC50: Mus musculus, Myoblast; for activation at 0.307 µM: read-out: Activity at 0.307 uM [%] **; for activation at 1.53 µM: read-out: Activity at 1.530 uM [%] **; for activation at 7.66 µM: read-out: Activity at 7.660 uM [%] **; for activation at 38.3 µM: read-out: Activity at 38.30uM [%] **; for EC50: read-out: Fit LogAC50 (converted)
Description: A total of 250 α7LacZ^+/− myoblasts at passage 13 were dispensed using a multidrop (Thermo) into black low base tissue culture treated microclear aurora plates in 6 μl media containing DMEM without phenol, 5% FBS, 1× GluMax and 1× Penicillin/Streptomycin. […] Compounds were then dispensed using a Kalypsys pintool to deliver 23 nl/well compounds in DMSO (diluted into 6 μl resulting in a 1:260 dilution of compound). […] After incubation with compound, 5 μl of the media was aspirated using the Kalypsys washer/dispenser and 3 μl of the Mammalian Protein Extraction Reagent (MPER) lysis buffer (Thermo Fisher) was added. […] The plates were then incubated for 10 minutes at room temperature.
The assay was adapted for a high-throughput screen with the fully automated Kalypsys robotic system using 1536 well plates at NCGC.

[2] = system: β-galactosidase in CMV-LacZ C2C12 myotubes; experiment: CMV-LacZ secondary screen in C2C12 myotubes (β-Gal stabilizing assay); type: cell-based, mouse; settings: CMV-LacZ C2C12 myotubes, 96-well format
How it was run: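 β-gal stabilization was measured in C2C12 myoblasts or myotubes stably transfected with a CMV-driven LacZ construct, using the FDG β-gal assay. Compounds were tested in dose-response at 0.5, 1, 5, 10, 20 and 40 μM, with two replicates per point.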

[3] = system: α7 integrin (LacZ reporter in α7+/LacZ myotubes); experiment: Myotube α7 integrin FDG assay (Burkin assay in myotubes, 96-well); type: cell-based, mouse; settings: myotubes
[4] = system: α7 integrin (LacZ reporter in α7βgal+/− myoblasts); experiment: Myoblast α7+/LacZ integrin FDG assay (Burkin assay in myoblasts, 96-well); type: cell-based, mouse; settings: α7+/LacZ myoblasts, 96-well
[5] = 48 h, read-out: Fit Infinite Activity [%]

| Structure (SMILES) | activation at 0.307 µM ([1]; 48 h) [%] | activation at 1.53 µM ([1]; 48 h) [%] | activation at 7.66 µM ([1]; 48 h) [%] | activation at 38.3 µM ([1]; 48 h) [%] | Emax [1, 5] [%] | EC50 [1] [nM] | further results |
| --- | --- | --- | --- | --- | --- | --- | --- |
| CC(OC(=O)c1cc(-c2cccnc2)nc2ccccc12)C(=O)Nc1ccc2ccccc2c1 (stereo not shown) [Compound 1] | 0 | 143 | 198 | 191 | 195 | 1120 | – |
| Cc1cccc(OCc2nc(C#N)c(N3CCCC3)o2)c1 [Compound 2] | 9.52 | 57 | 175 | 223 | 231 | 3550 | – |
| COc1ccccc1-c1coc2c3c(ccc2c1=O)OC1CCCCN1C3 (stereo not shown) [Compound 3] | -34.2 | 9.57 | 154 | 159 | 158 | 2240 | – |
| Cc1ccccc1C(=O)Nc1scc(-c2ccc(Br)cc2)c1C(=O)O [Compound 4] | 9.85 | 38.3 | 119 | 137 | 137 | 2820 | – |
| COc1cc2c(cc1NC(=O)Cc1ccc(C)cc1)oc1ccccc12 [Compound 5] | -1.8 | 58.4 | 87.2 | 687 | 87.4 | 1120 | – |
| COCc1c(C(=O)OCc2nc(=O)c3sccc3[nH]2)oc2ccccc12 [Compound 6] | -39.8 | 19.2 | 60.6 | 68.1 | 69.6 | 1120 | – |
| O=C(NC1CCCC1)c1ccc(CS(=O)(=O)Cc2ccccc2F)o1 [Compound 7] | 13.4 | 25.3 | 80.6 | 105 | 107 | 4470 | – |
| CN(C)S(=O)(=O)c1cccc(C(=O)Nc2ccc3c(c2)CCC3)c1 [Compound 8] | -15.4 | -10.6 | 96.4 | 94.3 | 96 | 2820 | – |
| Cc1c(C(=O)O)cccc1-n1c(C)cc(/C=N/Nc2ccc([N+](=O)[O-])cn2)c1C [Compound 9] | -24.5 | 6.29 | 68.1 | 88.7 | 92.2 | 2820 | Score [1]: 85; Emax ([1]; read-out: Max Response [%]): 88.7% |
| Cc1ccc(NP(=O)(Nc2ccc(C)cc2)Nc2ccc(C)cc2)cc1 [Compound 10] | 0 | 11.4 | 94.1 | 102 | 102 | 3160 | – |
| Cc1cc(OCC(=O)NC(C)C)ccc1Cl [Compound 11] | 0 | 7.6 | 83.9 | 102 | 101 | 3980 | – |
| COC(=O)C1=C(C)N=C(C)/C(=C(/O)OC)C1c1ccccc1OCc1c(C)no[n+]1[O-] (stereo not shown) [Compound 12] | 12.3 | 36.5 | 84.6 | 100 | 102 | 2820 | – |
| COc1ccc(NC(=O)c2cccc(N3C(=O)c4ccc(C(=O)Nc5ccc(OC)c(O)c5)cc4C3=O)c2)cc1O [Compound 13] | -24.8 | -27.4 | 80.7 | 95.6 | 94.7 | 4470 | – |
| CCOc1ccc(S(=O)(=O)NCCC(=O)NCC(c2cccs2)N2CCOCC2)cc1 (stereo not shown) [Compound 14] | -21.6 | 3.54 | 59.1 | 61.7 | 62.8 | 2240 | – |
| CCOc1ccccc1NC(=O)c1cccc2c1C(=O)N(C1CCCCC1)C2 [Compound 15] | -13.7 | 4.71 | 58 | 73.6 | 75.3 | 3160 | – |
| NC(=O)c1nsc(C(=O)N(c2ccccc2)C(C(=O)NCc2ccc(F)cc2)c2ccc(O)cc2)c1N (stereo not shown) [Compound 16] | -30.2 | 5.64 | 58.2 | 75.2 | 77.5 | 2240 | – |
| CCc1ccc(N(C(=O)c2snc(C(N)=O)c2N)C(C(=O)NC2CCCC2)c2ccco2)cc1 (stereo not shown) [Compound 17] | -18.3 | 9.37 | 52.7 | 67.6 | 71.4 | 2510 | – |
| COC(=O)C(=O)C/C(=N/Nc1ncnc2ccccc12)c1ccc(Cl)cc1 [Compound 18] | 7.75 | 30.6 | 358 | – | – | 10000 | – |
| Cc1cc(NC(=O)c2ccc(Cl)cc2Cl)no1 [Compound 19] | -20.1 | 15 | 43.9 | 52.1 | 52.7 | 1410 | – |
| CCOC(=O)Cc1csc(NC(=S)NC(=O)c2cc(OC)c(OC)c(OC)c2)n1 [Compound 20] | -18.1 | -4.46 | 69.3 | 82.9 | 83.9 | 3550 | – |
| CC(C)CC1NC(=O)N(CC(=O)N2c3ccccc3NC(=O)C2(C)C)C1=O (stereo not shown) [Compound 21] | 2.86 | 0 | 75.6 | 93.3 | 93.5 | 5620 | – |
| COCCSc1ccccc1C(=O)Nc1cc(C)cc(C)c1 [Compound 22] | 0 | 0 | 78.3 | 82.9 | 83.1 | 4470 | – |
| O=c1oc2c(-c3cccc(F)c3)cc(O)cc2s1 [Compound 23] | 12.6 | 18.8 | 87.3 | 98.9 | 98.5 | 3980 | – |
| Cc1ccc(C2Nc3cccc4cccc(c34)N2)s1 [Compound 24] | 5.89 | 19.6 | 73.1 | 81.3 | 82.7 | 3160 | – |
| C[C@H]1CNC(=O)c2c(C(=O)Nc3ccc(CNC(=O)OC(C)(C)C)cc3)ncn21 [MLS003126425-01] | – | – | – | – | – | – | CMV-LACZ in Myotubes (β-galactosidase activity relative to DMSO) ([2]; 5 uM): 1.354; CMV-LACZ in Myotubes (β-galactosidase activity relative to DMSO) ([2]; 10 uM): 0.8902; CMV-LACZ in Myotubes (β-galactosidase activity relative to DMSO) ([2]; 20 uM): 0.743; CMV-LACZ in Myotubes (β-galactosidase activity relative to DMSO) ([2]; 40 uM): 0.7123; Burkin Assay in Myotubes (signal relative to DMSO) ([3]; 0.5 uM): 1.104; Burkin Assay in Myotubes (signal relative to DMSO) ([3]; 1 uM): 1.203; Burkin Assay in Myotubes (signal relative to DMSO) ([3]; 5 uM): 1.422; Burkin Assay in Myotubes (signal relative to DMSO) ([3]; 10 uM): 1.6782; Burkin Assay in Myotubes (signal relative to DMSO) ([3]; 20 uM): 0.7372; Burkin Assay in Myotubes (signal relative to DMSO) ([3]; 40 uM): 0.5208; Burkin Assay in Myoblasts, value relative to DMSO ([4]; 0.5 uM): 1.146; Burkin Assay in Myoblasts, value relative to DMSO ([4]; 1 uM): 1.1398; Burkin Assay in Myoblasts, value relative to DMSO ([4]; 5 uM): 1.282; Burkin Assay in Myoblasts, value relative to DMSO ([4]; 10 uM): 1.254; Burkin Assay in Myoblasts, value relative to DMSO ([4]; 20 uM): 1.13; Burkin Assay in Myoblasts, value relative to DMSO ([4]; 40 uM): 0.4401 |
